Measured values reported in patent publication US7223759B2, “Antibacterial 3,5-diaminopiperidine-substituted aromatic and heteroaromatic compounds” (Anadys Pharmaceuticals, Inc., priority 2003, dated 2007).

Tested on: Escherichia coli (ATCC25922) or Staphylococcus aureus (ATCC25923)
Experiment: Antibacterial MIC, microdilution method in Mueller-Hinton medium
Type: cell-based
Settings: Escherichia coli, 18 h, MIC in E. coli or S. aureus; two-fold serial dilutions 64 to 0.5 μg/ml in duplicate; 18 hours of incubation at 35° C.; read-out: Potency (MIC)
How it was run: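 Two-fold serial dilutions from 64 to 0.5 μg/ml, in duplicate, by broth microdilution in Mueller-Hinton medium (NCCLS M7-A5). MIC taken as the lowest concentration preventing visible growth after 18 h at 35° C.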

| MIC | Compound |
| --- | --- |
| < 64 µg/mL | Cc1ccc(S(=O)(=O)N(Cc2ccccc2)c2ccc(Nc3nc(N4CCNCC4)nc(N4C[C@H](N)C[C@H](N)C4)n3)cc2O)cc1 [N-Benzyl-N-{4-[4-((3R,5S)-3,5-diamino-piperidin-1-yl)-6-piperazin-1-yl-[1,3,5]triazin-2-ylamino]-2-hydroxy-phenyl}-4-methyl-benzenesulfonamide] |
| > 64 µg/mL | Cc1cc(=O)oc2cc(Nc3nc(N4CCCCC4)nc(N4CCCC4)n3)ccc12.Cl [7-[4-((3R,5S)-33,5-Diamino-piperidin-1-yl)-6-((3R,4S)-3,4-dihydroxy-pyrrolidin-1-yl)-[1,3,5]triazin-2-ylamino]-4-methyl-chromen-2-one] |
| < 64 µg/mL | Cc1ccc(S(=O)(=O)N(Cc2ccccc2)c2ccc(Nc3nc(C4CCCCC4)nc(N4CCCCC4)n3)cc2O)cc1.Cl [N-{4-[4-((3S,5R)-3-Amino-5-hydroxy-piperidin-1-yl)-6-((3R,5S)-3,5-diamino-piperidin-1-l)-[1,3,5]triazin-2-ylamino]-2-hydroxy-phenyl}-N-benzyl-4-methyl-benzenesulfonamide] |
| < 64 µg/mL | Cl.O=C(Nc1ccc(Nc2nc(N3CCCCC3)nc(N3CCCCC3)n2)cc1O)c1c(Cl)cccc1Cl [N-[4-(2,6-dichloro-benzoylamino)-3-hydroxy-phenyl]-4,6-Bis-((3R,5S)-3,5-diamine-piperidin-1-yl)-[1,3,5]triazine-2-amine] |

Same assay, conditions: Escherichia coli, 18 h, read-out: Potency (MIC)

| Compound | MIC |
| --- | --- |
| CSc1ccc(CNc2nc(N3C[C@H](N)C[C@H](N)C3)nc(N3C[C@H](N)C[C@H](N)C3)n2)cc1 [N-(4-methylsulfanyl-benzyl)-4,6-Bis-((3R,5S)-3,5-diamino-piperidin-1-yl)-[1,3,5]triazine-2-amine] | < 64 µg/mL |
| Cc1cc(=O)oc2cc(Nc3nc(N4C[C@H](N)C[C@H](N)C4)nc(N4C[C@H](N)C[C@H](N)C4)n3)ccc12 [N-(4-methyl-2-oxo-2H-chromen-7-yl)-4,6-Bis-((3R,5S)-3,5-diamino-piperidin-1-yl)-[1,3,5]triazine-2-amine] | < 16 µg/mL |
| N[C@@H]1C[C@H](N)CN(c2nc(Nc3ccc(NC(=O)c4ccc(Cl)cc4O)c(Br)c3)nc(N3C[C@H](N)C[C@H](N)C3)n2)C1 [N-[3-bromo-4-(4-chloro-2-hydroxy-benzoylamino)-phenyl]-4,6-Bis-((3R,5S)-3,5-diamino-piperidin-1-yl)-[1,3,5]triazine-2-amine] | < 16 µg/mL |
| CC(C)CCCCCC(=O)Nc1ccc(Nc2nc(N3C[C@H](N)C[C@H](N)C3)nc(N3C[C@H](N)C[C@H](N)C3)n2)cc1O [N-[3-hydroxy-4-(7-methyl-octanoylamino)-phenyl]-4,6-Bis-((3R,5S)-3,5-diamino-piperidin-1-yl)-[1,3,5]triazine-2-amine] | < 16 µg/mL |
| Cc1ccc(S(=O)(=O)N(Cc2ccccc2)c2ccc(Nc3nc(N4C[C@H](N)C[C@H](N)C4)nc(N4C[C@H](O)C[C@@H](O)C4)n3)cc2O)cc1 [N-Benzyl-N-{4-[4-((3R,5S)-3,5-diamino-piperidin-1-yl)-6-((3R,5R)-3,5-dihydroxy-piperidin-1-yl)-[1,3,5]triazin-2-ylamino]-2-hydroxy-phenyl}-4-methyl-benzenesulfonamide] | < 64 µg/mL |
| CC(=O)c1ccc(Nc2nc(N3C[C@H](N)C[C@H](N)C3)nc(N3C[C@@H](N)C[C@H]3CN)n2)cc1 [1-{4-[4-((2S,4S)-4-Amino-2-aminomethyl-pyrrolidin-1-yl)-6-((3R,5S)-3,5-diamino-piperidin-1-yl)-[1,3,5]triazin-2-ylamino]-phenyl}-ethanone] | > 64 µg/mL |
| CCn1c(-c2cccc(Nc3nc(N4C[C@H](N)C[C@H](N)C4)nc(N4C[C@H](N)C[C@H](N)C4)n3)c2)cc(=O)n1-c1ccccc1 [N-[3-(2-ethyl-5-oxo-1-phenyl-2,5-dihydro-1H-pyrazol-3-yl)-phenyl]-4,6-Bis-((3R,5S)-3,5-diamino-piperidin-1-yl)-[1,3,5]triazine-2-amine] | > 64 µg/mL |
| N[C@@H]1C[C@H](N)CN(c2nc(Nc3ccc4c(c3)-c3ccccc3C4=O)nc(N3C[C@@H](N)C[C@@H](O)C3)n2)C1 [3-[4-((3S,5R)-3-Amino-5-hydroxy-piperidin-1-yl)-6-((3S,5R)-3,5-diamino-piperidin-1-yl)-[1,3,5]triazin-2-ylamino]-fluoren-9-one] | < 16 µg/mL |
| N[C@@H]1C[C@H](N)CN(c2nc(NNc3ccccc3F)nc(N3C[C@H](N)C[C@H](N)C3)n2)C1 [N-(4,6-Bis-((3R,5S)-3,5-diamino-piperidin-1-yl)-[1,3,5]triazin-2-yl)-N′-(2-Fluoro-phenyl)-hydrazine] | > 64 µg/mL |
| Nc1cncc(Nc2nc(N3C[C@H](N)C[C@H](N)C3)nc(N3C[C@H](N)C[C@H](N)C3)n2)c1 [N-(5-amino-pyridin-3-yl)-4,6-Bis-((3R,5S)-3,5-diamino-piperidin-1-yl)-[1,3,5]triazine-2-amine] | > 64 µg/mL |
| COc1cc(NC(=O)CC(=O)c2ccc(Nc3nc(N4C[C@H](N)C[C@H](N)C4)nc(N4C[C@H](N)C[C@H](N)C4)n3)cc2)c(OC)cc1Cl [N-{4-[2-(4-chloro-2,5-dimethoxy-phenylcarbamoyl)-acetyl]-phenyl}-4,6-Bis-((3R,5S)-3,5-diamino-piperidin-1-yl)-[1,3,5]triazine-2-amine] | < 16 µg/mL |
| COc1nc(Nc2ccc(C(=O)CC(=O)Nc3ccc4c(c3)OC(F)(F)O4)cc2)nc(N2C[C@H](N)C[C@H](N)C2)n1 [3-{4-[4-((3R,5S)-3,5-Diamino-piperidin-1-yl)-6-methoxy-[1,3,5]triazin-2-ylamino]-phenyl}-N-(2,2-difluoro-benzo[1,3]dioxol-5-yl)-3-oxo-propionamide] | < 16 µg/mL |
| NC[C@@H]1C[C@H](CN)CN(c2nc(Nc3ccc4c(c3)-c3ccccc3C4=O)nc(N3C[C@H](N)C[C@H](N)C3)n2)C1 [3-[4-((3R,5S)-3,5-Bis-(aminomethyl)-piperidin-1-yl)-6-((3R,5S)-3,5-diamino-piperidin-1-yl)-[1,3,5]triazin-2-ylamino]-fluoren-9-one] | < 64 µg/mL |
| Cc1nc(NS(=O)(=O)c2ccc(Nc3nc(N4C[C@H](N)C[C@H](N)C4)nc(N4C[C@H](N)C[C@H](N)C4)n3)cc2)oc1C [N-[4-(4,5-dimethyl-oxazol-2-ylsulfamoyl)-phenyl]-4,6-Bis-((3R,5S)-3,5-diamino-piperidin-1-yl)-[1,3,5]triazin-2-amine] | > 64 µg/mL |
| N[C@@H]1C[C@H](N)CN(c2nc(Nc3ccc(C(=O)Nc4ccc5c(c4)OC(F)(F)O5)c(O)c3)nc(N3C[C@H](N)C[C@H](N)C3)n2)C1 [N-[4-(2,2-difluoro-benzo[1,3]dioxol-5-ylcarbamoyl)-3-hydroxy-phenyl]-4,6-Bis-((3R,5S)-3,5-diamino-piperidin-1-yl)-[1,3,5]triazine-2-amine] | < 16 µg/mL |
| NC[C@@H]1C[C@H](N)CN1c1nc(Nc2ccc(NC(=O)c3ccc(Cl)cc3O)c(O)c2)nc(N2C[C@H](N)C[C@H](N)C2)n1 [N-{4-[4-((2S,4S)-4-Amino-2-aminomethyl-pyrrolidin-1-yl)-6-((3R,5S)-3,5-diamino-piperidin-1-yl)-[1,3,5]triazin-2-ylamino]-2-hydroxy-phenyl}-4-chloro-2-hydroxy-benzamide] | < 16 µg/mL |
| N[C@@H]1C[C@H](N)CN(c2nc(Nc3ccc(C(=O)CC(=O)Nc4ccccc4)cc3)nc(N3C[C@H](N)C[C@H](N)C3)n2)C1 [N-[4-(2-phenylcarbamoyl-acetyl)-phenyl]-4,6-Bis-((3R,5S)-3,5-diamino-piperidin-1-yl)-[1,3,5]triazine-2-amine] | < 16 µg/mL |
